From patent US20140038920A1, “TFEB PHOSPHORYLATION INHIBITORS AND USES THEREOF” (FONDAZIONE TELETHON, priority 2011, published 2014)
Like-named read-outs stand apart in the source and are kept apart here.

How the values were obtained:
TFEB [1] = assay: High content TFEB-GFP nuclear translocation assay; type: cell-based; conditions: Homo sapiens, TFEB-GFP HeLa cells
TFEB [2] = assay: TFEB molecular weight shift and localization in TFEB-3xFLAG HeLa cells stimulated with amino-acid rich medium plus inhibitor (FIG. 19B); type: cell-based; conditions: Torin 1 250 nM, Rapamycin 2.5 μM
Method: FIG. 19 mTORC1 regulates TFEB. (A) Lysosomal stress inhibits mTOR signaling. Immunoblotting of protein extracts isolated from HeLa cells treated overnight, as indicated. Membranes were probed with antibodies for p-T202/Y204-ERK1/2, ERK1/2, p-T389-S6K, and S6K to measure ERK and mTORC1 activities. […] FLAG immunoblotting of cytosolic and nuclear fractions isolated from TFEB-3×FLAG HeLa cells cultured in amino acid-free media and subsequently stimulated as indicated for at least 3 h. Correct subcellular fractionation was verified with H3 and tubulin antibodies. (C, D) Effects and dose—response curves of ERK and mTOR inhibitors on TFEB nuclear translocation. […] After 3 h at 37° C. in RPMI medium containing one of each of the compounds, the cells were washed, fixed, and stained with DAPI and photographed by using confocal automated microscopy (Opera high content system, Perkin Elmer). (C) Representative images of test concentrations for each compound. Scale bars represent 30 μm. […] The EC50 for each compound was calculated using Prism software (see Materials and Methods for details). (E) Amino acids induce TFEB molecular weight shift. Immunoblotting of protein extracts isolated from HEK-293T cells transfected either TFEB-3×FLAG or with an empty vector were nutrient starved and stimulated for 50 minutes with amino acids (a.a.). Antibody used were p-T389-S6K, S6K and FLAG. (F) Rag knockdown induces TFEB nuclear translocation. HeLa cells stably expressing Flag-3×TFEB were infected with lentiviruses encoding a Short hairpin (Sh-) RNA targeting luciferase (control) or RagC and RagD mRNAs. […] TFEB localization was detected with a FLAG antibody, whereas tubulin and H3 were used as controls for the cytosolic and nuclear fraction, respectively; levels of S6K phosphorylation were used to test RagC and RagD knockdown efficiency.
The mouse anti-TFEB monoclonal antibody was purchased from My Biosource catalogue No. MBS 120432. To generate anti-pS142 specific antibodies, rabbits were immunized with the following peptide coupled to KLH: AGNSAPN{pSer}[…]. Following the fourth immunization, rabbits were sacrificed and the serum was collected. Non-phosphospecific antibodies were depleted from the serum by circulation through a column containing the nonphosphorylated antigene. The phosphospecific antibodies were subsequently purified using a column containing the phosphorylated peptide. Cells were lysed with M-PER buffer (Thermo) containing protease and phosphatase inhibitors (Sigma); nuclear/cytosolic fractions were isolated as above described. Proteins were separated by SDS-PAGE (Invitrogen; reduced NuPAGE 4-12% Bis-tris Gel, MES SDS buffer). If needed, the gel was stained using 20 ml Imperial Protein Stain (Thermo Fisher) at room temperature for 1 h and de-stained with water. […]

[3] = 3 h, ten concentrations 2.54 nM to 50 μM (FIG. 19D), read-out: EC50, TFEB nuclear translocation
[4] = mobilization of cytosolic TFEB to the nucleus, 3 h at 37° C. in RPMI, ten concentrations 50 μM to 2.54 nM, 4 runs, read-out: Average EC50

Row | Structure (SMILES) | EC50 (TFEB [1]; [3]) [µM] | EC50 (TFEB [1]; [4]) [µM] | TFEB subcellular localization after nutrient stimulation (TFEB [2]) | TFEB molecular weight shift induced by nutrients (TFEB [2]; U0126 50 μM)
1 | CO[C@H]1C[C@@H]2CC[C@@H](C)[C@@](O)(O2)C(=O)C(=O)N2CCCC[C@H]2C(=O)O[C@H]([C@H](C)C[C@@H]2CC[C@@H](O)[C@H](OC)C2)CC(=O)[C@H](C)/C=C(\C)[C@@H](O)[C@@H](OC)C(=O)[C@H](C)C[C@H](C)/C=C/C=C/C=C/1C [RAPAMYCIN] | 104 | > 15 | did not affect TFEB subcellular localization | partial molecular weight shift
2 | CCC(=O)N1CCN(c2ccc(-n3c(=O)ccc4cnc5ccc(-c6cnc7ccccc7c6)cc5c43)cc2C(F)(F)F)CC1 [TORIN 1] | 0.148 | < 7 | massive TFEB nuclear accumulation | –
